Measured values published in patent US7851573B2, “Aqueous polytetrafluoroethylene emulsion, polytetrafluoroethylene fine powder and porous material obtained therefrom” (Asahi Glass Company, Limited, priority 2005, dated 2010).

Key:
[1] = background art statement, no method given; cited from earlier work
[2] = 1-octanol/water partition coefficient (LogPOW) by HPLC, OECD Test Guideline 117; type: physicochemical; conditions: for LogPOW: HPLC method, ODS column, acetonitrile/0.6 mass % HClO4 aq. 1/1, 40° C., calibration with C7-C10 carboxylic acids; for bioaccumulation potential / accumulation in a living organism: judged from the LogPOW value compared to APFO
Method: In accordance with OECD Test Guideline 117, 1-octanol/water partition coefficient (LogPOW) of a fluorinated emulsifier was measured by using HPLC (high performance liquid chromatography).
Conditions for the measurement were as follows: column: TOSOH ODS-120T column ((φ 4.6 mm×250 mm), eluent: acetonitrile/0.6 mass % of HClO4 aqueous solution=1/1 (vol/vol %), flow rate: 1.0 mL/minute, sample amount: 300 μL, column temperature: 40° C., and detection light: UV 210 nm (WO2005-42593).
HPLC was carried out on standard substances (heptanoic acid, octanoic acid, nonanoic acid and decanoic acid) having known 1-octanol/water partition coefficients, and a calibration curve was prepared from the respective elution times and octanol/water partition coefficients of the respective standard substances. Based on this calibration curve, a value of partition coefficient (LogPOW) between 1-octanol and water was calculated from the elution time by HPLC of the fluorinated emulsifier.
Further, in general, in order to judge whether or not a chemical substance is apt to be accumulated in a living organism, a testing method for measurement of a partition coefficient (LogPOW) between 1-octanol and water, is stipulated. As the testing method, in addition to “Partition Coefficient (1-octanol/water) Shake Flask Method” as stipulated in OECD test guideline 107 and in Japanese Industrial Standards Z 7260-107 (2000), a HPLC method (high-performance liquid chromatography) as stipulated and published in OECD Test Guideline 117, is used. A compound having a large partition coefficient value has a large tendency for bioaccumulation, and a compound having a small value means a small tendency for bioaccumulation. In a case where the LogPOW value is less than 3.5, it is considered proper to judge that it is not a high-concentration, and bioaccumulation is also considered to be small.

| SMILES | bioaccumulation potential [1] | LogPOW [2] | bioaccumulation potential / accumulation in a living organism [2] |
| --- | --- | --- | --- |
| N.O=C(O)C(F)(F)C(F)(F)C(F)(F)C(F)(F)C(F)(F)C(F)(F)C(F)(F)F [CF3(CF2)6COONH4, ammonium perfluorooctanoate] | high | 3.67 |  |
| N.O=C(O)C(F)(OC(F)(F)C(C(F)(F)F)C(F)(F)C(F)(F)C(F)(F)F)C(F)(F)F (stereo not shown) [CF3CF2CF2C(CF3)CF2OCF(CF3)COONH4] | higher bioaccumulation potential than APFO |  |  |
| N.O=C(O)C(F)(F)OC(F)(F)C(F)(F)OC(F)(F)C(F)(F)F [CF3CF2OCF2CF2OCF2COONH4] |  | 3.13 | low |
| N.O=C(O)C(F)(OC(F)(F)C(F)(OC(F)(F)C(F)(F)F)C(F)(F)F)C(F)(F)F (stereo not shown) [CF3CF2OCF(CF3)CF2OCF(CF3)COONH4] |  | 4.03 | high |
